Measurements taken from patent publication US5776970A, “Tryptophan derivatives as protein tyrosine kinase blockers and their use in the treatment of neoplastic diseases” (Yeda Research and Development Co. Ltd., priority 1994, dated 1998).

Key:
[1] = biological target: T1, insulin receptor tyrosine kinase (InsRTK) (Rattus norvegicus, UniProt P15127); experiment: PolyGlu4 Tyr phosphorylation by partially purified (wheat-germ-agglutinin purified) rat liver insulin receptor, cell-free; assay type: biochemical; set-up: wheat-germ-agglutinin purified rat liver insulin receptor; from tissue; host or cells: rat liver (wheat-germ-agglutinin purified); conditions: for Relative cell-free potency in inhibiting InsRTK: CBZ-DNPS-TRP-Taurine 100
Method: An assay of PolyGlu4 Tyr phosphorylation by partially purified insulin receptor was run for 30 min at 22° C. in 60 μl of 50 mM Hepes (pH 7.4)-0.1% Triton X-100 containing wheat-germ-agglutinin purified rat liver insulin receptor (1 μg protein), MgCl2 25 mM; MnCl2, 1 mM, ATP 17 μM, insulin 0.1 μM, PolyGlu4 Tyr, 0.17 mg/ml and the indicated concentrations in FIG. 1 of CBZ-DNPS-TRP-TAU. Phosphotyrosine content in PolyGlu4 Tyr was determined by a radioimmunoassay procedure (Shisheva et al., 1991). […] The inhibitory potency of other derivatives of formula I on InsRTK-catalyzed PolyGlu4 Tyr phosphorylation in cell-free experiments was determined. […] For comparison, the IC50 values for AC-TRP-TAU and L-tryptophan are 5 mM and >30 mM, respectively.
(§1) Various derivatives according to the invention in which R^1 is benzyloxycarbonyl (CBZ) or t-butoxycarbonyl (t-Boc), R^2 is --SO3 H or --PO3 H, n is 1,2 or 3, and R^3 is H, 2-nitrophenylthio (NPS) or 2,4-dinitrophenylthio (DNPS) were prepared and examined in cell-free and intact cell systems. The cell-free assay is PolyGlu4 Tyr phosphorylation by partially purified insulin receptor as described in Example 3. The assay in intact cells (namely, lipogenesis) was carried out as described in Example 4.
Target sequence in this assay (P15127 764-1383 limits assumed): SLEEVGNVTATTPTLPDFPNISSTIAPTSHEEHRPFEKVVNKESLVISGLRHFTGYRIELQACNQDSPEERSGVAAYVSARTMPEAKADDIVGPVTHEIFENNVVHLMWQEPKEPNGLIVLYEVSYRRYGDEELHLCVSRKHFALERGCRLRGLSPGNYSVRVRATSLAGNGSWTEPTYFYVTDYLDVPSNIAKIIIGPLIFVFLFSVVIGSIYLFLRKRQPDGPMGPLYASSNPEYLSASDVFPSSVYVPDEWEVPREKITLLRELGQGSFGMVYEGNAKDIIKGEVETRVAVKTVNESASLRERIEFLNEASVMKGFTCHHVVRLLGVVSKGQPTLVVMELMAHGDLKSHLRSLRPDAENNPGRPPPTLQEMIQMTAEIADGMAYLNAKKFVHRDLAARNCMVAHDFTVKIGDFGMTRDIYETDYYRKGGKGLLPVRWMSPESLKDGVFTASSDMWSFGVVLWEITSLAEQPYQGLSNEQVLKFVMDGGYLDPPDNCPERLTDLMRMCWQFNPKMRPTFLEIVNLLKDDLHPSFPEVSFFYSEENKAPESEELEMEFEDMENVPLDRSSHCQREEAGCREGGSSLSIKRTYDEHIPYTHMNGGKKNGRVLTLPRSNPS
Target sequence in this assay (P15127 27-759 partner limits assumed): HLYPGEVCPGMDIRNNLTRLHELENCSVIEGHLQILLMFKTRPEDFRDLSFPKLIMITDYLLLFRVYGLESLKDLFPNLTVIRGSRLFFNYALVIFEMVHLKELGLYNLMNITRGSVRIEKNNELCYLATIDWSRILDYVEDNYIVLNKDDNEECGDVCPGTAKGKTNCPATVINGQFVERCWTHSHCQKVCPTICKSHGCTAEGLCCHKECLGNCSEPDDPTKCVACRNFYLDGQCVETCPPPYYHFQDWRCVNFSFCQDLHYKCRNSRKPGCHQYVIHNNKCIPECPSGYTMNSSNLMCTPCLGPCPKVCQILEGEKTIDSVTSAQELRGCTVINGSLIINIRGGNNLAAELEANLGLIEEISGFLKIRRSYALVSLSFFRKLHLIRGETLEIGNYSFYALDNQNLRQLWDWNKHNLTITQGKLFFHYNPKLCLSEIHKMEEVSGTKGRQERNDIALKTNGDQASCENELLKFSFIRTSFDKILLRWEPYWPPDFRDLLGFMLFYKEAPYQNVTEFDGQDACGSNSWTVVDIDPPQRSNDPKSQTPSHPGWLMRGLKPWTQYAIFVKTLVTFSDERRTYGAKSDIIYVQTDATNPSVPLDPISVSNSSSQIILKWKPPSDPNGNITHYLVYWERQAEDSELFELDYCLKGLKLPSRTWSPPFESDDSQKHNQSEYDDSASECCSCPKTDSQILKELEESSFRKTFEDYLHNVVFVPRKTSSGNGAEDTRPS

rat adipocytes = experiment: permeability into cell interiors (intact cell system, lipogenesis); assay type: cell-based; conditions: graded in words
Method: Rat adipocytes were prepared essentially by the method of Rodbell, 1964. The fat pads of three rats were cut into small pieces with scissors and digested in 3 ml of Krebs-Ringer-Bicarbonate (KRB)-buffer containing 0.7% bovine serum albumin (BSA) (pH 7.4) with collagenase (1 mg/ml). The digestion was performed in a 25 ml flexible plastic bottle under an atmosphere of carbogen (95% O2, 5% CO2) for 40 min at 37° C. with vigorous shaking. Five ml of buffer was then added, and the cells were squeezed through a mesh screen. The cells were then allowed to stand for several minutes (in a 15 ml plastic test tube at room temperature, floating) and the buffer underneath was removed. This procedure (suspension, floating and removal of buffer underneath) was repeated three times. For [^14 C-U]glucose incorporation (lipogenesis), the fat cell suspensions (3×10^5 cells/ml) were divided into plastic vials (0.5 ml per vial) and incubated for 60 min at 37° C. under an atmosphere of 95% O2, 5% CO2, with 0.2 mM [U-^14 C]glucose, in either the presence or absence of insulin (100 ng/ml) and the indicated concentrations in FIG. 2 of CBZ-DNPS-TRP-TAU. The reaction was terminated by adding toluene-based scintillation fluid (1.0 ml per vial) and the extracted lipids were counted (Shechter and Karlish, 1980). Fat cell suspensions were pre-incubated for 20 min at 37° C. with increasing concentrations of the inhibitors. Results are expressed in FIG. 2 as the percent of maximal stimulation at the indicated concentrations of inhibitors. In all experiments insulin-stimulated lipogenesis was 4- to 5-fold higher than basal; basal ~2000 cpm per 3×10^5 cells/h; Vinsulin 8000-10,000 cpm per 3×10^5 cells/h.
as §1

[2] = biological target: T1, insulin receptor tyrosine kinase (InsRTK); experiment: inactivation of InsRTK by affinity reagent; assay type: biochemical; conditions: covalent affinity reagent
Source text: Thus, to design and synthesize a low molecular weight blocker of InsRTK able to permeate into cell interiors, we first searched for an affinity reagent that would covalently bind and inactivate the InsRTK at low concentrations. […] The complementary hydrophilic domain of the InsRTK contains a lysine moiety that reacts covalently with the active ester and is likely to participate in substrate binding or catalysis. Equipped with this information we have synthesized a family of competitive inhibitors.
Target sequence in this assay (P15127 27-1383): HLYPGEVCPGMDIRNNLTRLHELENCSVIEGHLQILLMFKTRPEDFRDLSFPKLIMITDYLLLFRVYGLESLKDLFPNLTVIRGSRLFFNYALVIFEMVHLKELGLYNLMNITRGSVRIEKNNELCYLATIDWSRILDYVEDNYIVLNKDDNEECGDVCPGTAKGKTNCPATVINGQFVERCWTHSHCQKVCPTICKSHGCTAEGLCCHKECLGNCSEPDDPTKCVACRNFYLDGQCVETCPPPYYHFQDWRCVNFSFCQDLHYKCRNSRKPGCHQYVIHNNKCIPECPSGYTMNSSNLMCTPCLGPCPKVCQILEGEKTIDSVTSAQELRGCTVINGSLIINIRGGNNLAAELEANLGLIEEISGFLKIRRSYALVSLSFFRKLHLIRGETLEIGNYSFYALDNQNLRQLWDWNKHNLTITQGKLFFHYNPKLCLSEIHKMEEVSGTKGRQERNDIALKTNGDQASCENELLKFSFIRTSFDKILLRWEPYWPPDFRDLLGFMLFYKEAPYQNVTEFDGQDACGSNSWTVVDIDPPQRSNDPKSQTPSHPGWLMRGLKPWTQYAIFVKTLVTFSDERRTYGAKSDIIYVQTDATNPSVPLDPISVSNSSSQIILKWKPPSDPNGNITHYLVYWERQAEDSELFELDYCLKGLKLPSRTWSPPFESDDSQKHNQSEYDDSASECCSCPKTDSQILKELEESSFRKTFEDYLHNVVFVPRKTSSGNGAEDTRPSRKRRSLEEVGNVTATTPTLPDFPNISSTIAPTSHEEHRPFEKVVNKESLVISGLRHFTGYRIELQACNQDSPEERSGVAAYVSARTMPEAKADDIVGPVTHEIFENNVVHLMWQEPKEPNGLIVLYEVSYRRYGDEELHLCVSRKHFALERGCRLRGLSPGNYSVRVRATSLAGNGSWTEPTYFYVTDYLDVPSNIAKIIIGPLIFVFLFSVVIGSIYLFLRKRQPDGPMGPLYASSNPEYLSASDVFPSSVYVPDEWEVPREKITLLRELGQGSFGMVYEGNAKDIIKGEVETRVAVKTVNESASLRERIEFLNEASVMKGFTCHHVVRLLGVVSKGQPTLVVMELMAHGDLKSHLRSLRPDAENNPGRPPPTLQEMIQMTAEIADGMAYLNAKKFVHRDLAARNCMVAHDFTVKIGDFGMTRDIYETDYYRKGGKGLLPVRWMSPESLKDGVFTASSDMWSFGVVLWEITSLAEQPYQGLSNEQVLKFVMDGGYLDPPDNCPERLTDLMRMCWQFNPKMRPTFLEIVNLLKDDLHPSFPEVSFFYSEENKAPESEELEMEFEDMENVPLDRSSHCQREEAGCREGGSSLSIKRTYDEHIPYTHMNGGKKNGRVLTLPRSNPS

solubility = conditions: water
[3] = tested on: isoproterenol-mediated lipolysis; experiment: isoproterenol-mediated lipolysis in rat adipocytes (glycerol release); assay type: cell-based; conditions: isoproterenol 1 μM alone
Method: In general there are two classes of protein kinases (PKs) in mammalian tissues: (a) PKs which phosphorylate tyrosine moieties in proteins (to phosphotyrosine), and (b) PKs which phosphorylate serine and threonine moieties (to phosphoserine and phosphotreonine). […] An example for such a metabolic effect is lipolysis which depends on protein kinase A. Rat adipocytes (prepared by the method of Rodbell, 1964) were incubated with isoproterenol alone (1 μM) or isoproterenol with CBZ-DNPS-TRP-TAU (200 μM) for one hour at 37° C. The amount of glycerol released from the cells was then determined by spectroscopic procedure (Shechter, 1982).

[4] = tested on: insulin-stimulated lipogenesis in rat adipocytes; experiment: insulin-stimulated lipogenesis in rat adipocytes ([U-14C]glucose incorporation); assay type: cell-based; conditions: insulin 100 ng/ml
Method: The fat pads of three rats were cut into small pieces with scissors and digested in 3 ml of Krebs-Ringer-Bicarbonate (KRB)-buffer containing 0.7% bovine serum albumin (BSA) (pH 7.4) with collagenase (1 mg/ml). […] Five ml of buffer was then added, and the cells were squeezed through a mesh screen. The cells were then allowed to stand for several minutes (in a 15 ml plastic test tube at room temperature, floating) and the buffer underneath was removed. This procedure (suspension, floating and removal of buffer underneath) was repeated three times. […] Fat cell suspensions were pre-incubated for 20 min at 37° C. with increasing concentrations of the inhibitors. Results are expressed in FIG. 2 as the percent of maximal stimulation at the indicated concentrations of inhibitors.

[5] = tested on: murine T-cell lymphoma (LB3); experiment: insulin-dependent proliferation of murine T-cell lymphoma (LB3), thymidine incorporation; assay type: cell-based; conditions: 30,000 LB3 cells; insulin or other mitogens
Method: LB cells were removed from the peritoneal cavity of BALB/c mice, washed and resuspended in RPMI-1640. Then a continuous line designated LB3 was established in "LB medium" (50% RPMI-1640 plus 50% DCCM-1 in 10% fetal calf serum (FCS)). The LB3 cells were incubated (37° C., 5% CO2) in microplate wells (Nunc, Roskilde, Denmark) with 0.2 ml RPMI-1640 alone and in the same medium containing insulin, fetal calf serum (FCS) or both, and different concentrations of the compound CBZ-DNPS-TRP-TAU as indicated in FIG. 3. Proliferation capacity was determined by thymidine incorporation (^3 H-TdR, 1 μCi/well, specific activity 5 Ci/mM), added to the cells 24 hours later. In a typical experiment, cpm of ^3 H-thymidine incorporated into 30,000 cells was 12-14 fold higher in the presence of insulin or other mitogens than in their absence.

[6] = cell-free, 30 min, 22° C., pH 7.4, ATP 17 μM, insulin 0.1 μM, read-out: IC50 value, InsRTK-catalyzed PolyGlu4 Tyr phosphorylation

Molecule | Relative cell-free potency in inhibiting InsRTK [1] | Permeability into cell interiors (rat adipocytes) | other results
CC(=O)N[C@@H](Cc1c[nH]c2ccccc12)C(=O)NCCS(=O)(=O)O [AC-TRP-TAU, reference compound] | – | – | IC50 [1, 6]: 5000 µM
CC(=O)N[C@@H](Cc1c(Sc2ccc([N+](=O)[O-])cc2[N+](=O)[O-])[nH]c2ccccc12)C(=O)NCCS(=O)(=O)O [Acetyl-DNPS-TRP-Taurine] | 80% | poor | inhibition of InsRTK in words ([1]; cell-free experiments): inhibits InSRTK; Permeability into cell interiors (rat adipocytes; listed as acetyl-DNPS-TRP-TAU): low permeability
O=C(O)CC(NC(=O)[C@H](Cc1c(Sc2ccc([N+](=O)[O-])cc2[N+](=O)[O-])[nH]c2ccccc12)NC(=O)OCc1ccccc1)C(=O)O (some centres unmarked) [CBZ-DNPS-TRP-Aspartic Acid] | 5% | good | –
O=C(N[C@@H](Cc1c(Sc2ccc([N+](=O)[O-])cc2[N+](=O)[O-])[nH]c2ccccc12)C(=O)NCS(=O)(=O)O)OCc1ccccc1 [CBZ-DNPS-TRP-aminomethyl-SO3, CBZ-DNPS-TRP-aminomethylsulfonic acid] | 90% | excellent | –
O=C(N[C@@H](Cc1c(Sc2ccc([N+](=O)[O-])cc2[N+](=O)[O-])[nH]c2ccccc12)C(=O)NCCCS(=O)(=O)O)OCc1ccccc1 [CBZ-DNPS-TRP-aminopropyl-SO3, CBZ-DNPS-TRP-aminopropylsulfonic acid] | 70% | excellent | –
O=C(N[C@@H](Cc1c(Sc2ccccc2[N+](=O)[O-])[nH]c2ccccc12)C(=O)NCCS(=O)(=O)O)OCc1ccccc1 [CBZ-NPS-TRP-TAU] | 30% | good | IC50 [1, 6]: 550 µM
O=C(NC(Cc1ccccc1)C(=O)ON1C(=O)CCC1=O)OCc1ccccc1 (centres unmarked) [CBZ-Phe-OSU, benzyloxycarbonylphenyl-N-hydroxysuccinimide ester] | – | – | IC50 [2]: 50 µM
O=C(N[C@@H](Cc1c[nH]c2ccccc12)C(=O)NCCS(=O)(=O)O)OCc1ccccc1 [CBZ-TRP-TAU] | 20% | poor | IC50 [1, 6]: 2700 µM; solubility (solubility): ≤ 1300 mM
O=C(N[C@@H](Cc1c[nH]c2ccccc12)C(=O)NCP(=O)(O)O)OCc1ccccc1 [CBZ-TRP-aminomethyl-PO3] | 5% | poor | –
O=C(N[C@@H](Cc1c[nH]c2ccccc12)C(=O)NCCCS(=O)(=O)O)OCc1ccccc1 [CBZ-TRP-β-TAU] | – | – | IC50 [1, 6]: 3500 µM
CC(C)CC(NC(=O)OCc1ccccc1)C(=O)NCCS(=O)(=O)O (centres unmarked) [CBZ-leucine-Taurine, reference compound] | 2% | poor | –
CC(C)NCC(O)c1ccc(O)c(O)c1 (centres unmarked) [Isoproterenol, isoproterenol, reference compound] | – | – | activity at 1 µM ([3]; Rattus norvegicus, Adipocyte, read-out: Percent lipolysis): 100%; Amount of glycerol released [3]: 165 nmol/3 × 10^5 cells/3 h
N[C@@H](Cc1c[nH]c2ccccc12)C(=O)O [L-tryptophan, reference compound] | – | – | IC50 [1]: > 30000 µM
CC(C)(C)OC(=O)N[C@@H](Cc1c(Sc2ccc([N+](=O)[O-])cc2[N+](=O)[O-])[nH]c2ccccc12)C(=O)NCCS(=O)(=O)O [tBoc-DNPS-TRP-Taurine, tBoc-DNPS-TRP-aminoethylsulfonic acid] | 95% | excellent | –
CC(C)(C)OC(=O)N[C@@H](Cc1c(Sc2ccc([N+](=O)[O-])cc2[N+](=O)[O-])[nH]c2ccccc12)C(=O)NCS(=O)(=O)O [tBoc-DNPS-TRP-aminomethyl-SO3, tBoc-DNPS-TRP-aminomethylsulfonic acid] | 80% | excellent | –
CC(C)(C)OC(=O)N[C@@H](Cc1c(Sc2ccc([N+](=O)[O-])cc2[N+](=O)[O-])[nH]c2ccccc12)C(=O)NCCCS(=O)(=O)O [tBoc-DNPS-TRP-aminopropyl-SO3, tBoc-DNPS-TRP-aminopropylsulfonic acid] | 90% | excellent | –
insulin | – | – | Vinsulin (lipogenesis) [4]: 8000-10,000 cpm per 3×10^5 cells/h; 3H-thymidine incorporation in presence vs absence of insulin [5]: 12-14 fold
